In PubChem BioAssay AID1845210 (Molecular Pharmacology Branch, DTP, NCI, 2023):
“And” between values parts separate entries of the source, which are not always exact repeats. Identical values can stand only once. Values belong to the compound of their own block, whether it stands above or below them.

System: NCI-H226 complex tumor spheroids, viability
Test: Anticancer human tumor NCI-H226 cell line growth inhibition;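 also: spheroids exposed to compound for 7 days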;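 as to viability, T/C: 100% = DMSO vehicle control viability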
Settings: for viability, T/C: stronger effect = lower value
Source text: Multicellular complex tumor spheroid response to DNA repair inhibitors in combination with DNA-damaging drugs
This study explores the anticancer activities of DNA-damaging drugs and inhibitors of DNA damage repair, both as single agents and in combinations. Complex tumor spheroids comprised of malignant cells, endothelial cells and mesenchymal stem cells served as an in vitro model for human solid tumors. This model system incorporates physiologically relevant features and patient-derived or established malignant cell lines with clinically relevant genetic alterations from many tumor types. Twenty-six patient-derived or established malignant cell lines were evaluated representing sarcoma, melanoma, small cell lung cancer (SCLC), non-small cell lung cancer (NSCLC), as well as bladder, ovarian and pancreatic cancers. The concentration ranges selected for each drug and investigational agent were based upon clinically achievable concentrations if the clinical Cmax of the agent was known.
Compounds. The drugs and compounds olaparib (NSC753686), talazoparib (NSC767125), berzosertib (NSC777718), elimusertib (NSC800525), nedisertib (NSC802822), VX-984 (NSC792969), AZD-1390 (NSC803789), temozolomide (NSC362856), topotecan (NSC609699), trabectedin (NSC813783), staurosporine (NSC755774), and gemcitabine (NSC613327) were obtained from the National Cancer Institute (NCI) Developmental Therapeutics Program Chemical Repository. The FDA-approved anticancer drug set is available from the Developmental Therapeutics Program at https://dtp.cancer.gov/organization/dscb/obtaining/available_plates.htm. […] The stock solutions were prepared in dimethyl sulfoxide (DMSO, Sigma-Aldrich, St. Louis, MO, cat. D2650) at 400-fold the tested concentration and stored at -70 degrees C. Prior to their use, the stock solutions were diluted in fresh medium and the final DMSO concentration in the assay was 0.25% (v/v). All drugs and investigational agents were tested over a range starting from a high concentration at or near the clinical Cmax and decreasing in half-log increments. If the clinical Cmax for an agent had not been determined, the highest concentration tested was 10 microM.
Cell Lines. The patient-derived cancer cell (PDC) lines: 156681-154-R-J1-PDC, 283228-195-R-J1-PDC, 287954-098-R-J1-PDC, 292921-168-R-J2-PDC, 349418-098-R-PDC, 425362-245-T-J1-PDC, 556581-035-R-J1-PDC, and BL0293-F563-PDC were received from the NCI Patient-Derived Models Repository (PDMR, https://pdmr.cancer.gov). The established cell lines HS-SY-2 (RRID:CVCL_8719), MPNST, and SYO-1 (RRID:CVCL_7146) were obtained from the Sloan Kettering Institute. The alveolar soft parts sarcoma cell line ASPS-1 (RRID:CVCL_S738) was established at the NCI and grown from internal seed stocks. The following established cell lines were purchased from the American Type Culture Collection (ATCC, Manassas, VA): G-401 (ATCC, cat. CRL-1441, RRID:CVCL_0270), SW982 (ATCC, cat. HTB-93, RRID:CVCL_1734), VA-ES-BJ (ATCC, cat. CRL-2138, RRID:CVCL_1785), NCI-H719 (ATCC, cat. CRL-5837, RRID:CVCL_1582), NCI-H196 (ATCC, cat. CRL-5823, RRID:CVCL_1509), NCI-H841 (ATCC, cat. CRL-5845, RRID:CVCL_1595), NCI-H1618 (ATCC, cat. CRL-5879, RRID:CVCL_1480), NCI-H1876 (ATCC, cat. CRL-5902, RRID:CVCL_1503), DMS 114 (ATCC, cat. CRL-2066; RRID:CVCL_1174), NCI-H211 (ATCC, cat. CRL-5824; RRID:CVCL_1529), and SW 1271 (ATCC, cat. CRL-2177, RRID:CVCL_1716). The small cell lung cancer cell line COR-L88 was purchased from Sigma-Aldrich (cat. 92031917-1VL, RRID:CVCL_1141). The non-small cell lung cancer cell lines NCI-H226 (RRID:CVCL_1544) and NCI-H322M (RRID:CVCL_1557) were established at the NCI and grown from internal seed stocks. Pooled donor human umbilical vein endothelial cells (HUVEC, Lonza, cat. CC-2519) and human mesenchymal stem cells (hMSC, Lonza, cat. PT-2501) were purchased from Lonza (Walkersville, MD).
Cell Culture. All cells were maintained in an incubator at 37 degrees C and 5% CO2 with 95% humidity. […]

SMILES: [2H]c1nc(C)nc([2H])c1-c1cc(NC[C@@H](C)c2cccc3c(C(=O)NC)ccnc23)ncn1
viability, T/C (compound 0.0316 µM): 93.8% and 95.7% and 112%
viability, T/C (compound 0.1 µM): 101% and 95.3% and 97.7%
viability, T/C (compound 0.316 µM): 103% and 106% and 88.5%
viability, T/C (compound 1 µM): 107% and 106% and 93.5%
viability, T/C (compound 3.16 µM): 101% and 99.3% and 88.1%
viability, T/C (compound 10 µM): 111% and 114% and 106%
IC50 (curve of compound): > 10 µM

SMILES: CNCc1ccc(-c2cc(-c3nc(-c4ccc(S(=O)(=O)C(C)C)cc4)cnc3N)on2)cc1
viability, T/C (compound 0.00949 µM): 109% and 97.8% and 83.3%
viability, T/C (compound 0.03 µM): 126% and 123% and 90.1%
viability, T/C (compound 0.0949 µM): 132% and 112% and 106%
viability, T/C (compound 0.3 µM): 124% and 127% and 118%
viability, T/C (compound 0.949 µM): 20% and 109% (2×)
viability, T/C (compound 3 µM): 0.4% and 2.72% and 0.64%
IC50 (curve of compound): 0.678 µM and 1.8 µM and 1.71 µM

SMILES: Cn1ncnc1[C@H]1c2n[nH]c(=O)c3cc(F)cc(c23)N[C@@H]1c1ccc(F)cc1
viability, T/C (compound 0.00949 µM): 96.2% and 89.2% and 90.4%
viability, T/C (compound 0.03 µM): 94.6% and 95.9% and 92.7%
viability, T/C (compound 0.0949 µM): 87.4% and 93.6% and 101%
viability, T/C (compound 0.3 µM): 89.4% and 101% and 88.2%
viability, T/C (compound 0.949 µM): 88.6% and 84.1% and 87%
viability, T/C (compound 3 µM): 94.2% and 99.2% and 107%
IC50 (curve of compound): > 3 µM

SMILES: COc1cc(C)[nH]c(=O)c1CN1CCc2c(Cl)cc(C(OC)C3COC3)c(Cl)c2C1=O (stereo unspecified) + Cn1nnc2c(C(N)=O)ncn2c1=O
IC50 (curve of first compound, second compound 1 µM): > 10 µM
IC50 (curve of first compound, second compound 3.16 µM): > 10 µM
IC50 (curve of first compound, second compound 10 µM): > 10 µM
IC50 (curve of first compound, second compound 31.6 µM): > 10 µM
IC50 (curve of first compound, second compound 100 µM): > 10 µM
viability, T/C (second compound 1 µM, first compound 0.0316 µM): 133%
viability, T/C (second compound 1 µM, first compound 0.1 µM): 131%
viability, T/C (second compound 1 µM, first compound 0.316 µM): 130%
viability, T/C (second compound 1 µM, first compound 1 µM): 133%
viability, T/C (second compound 1 µM, first compound 3.16 µM): 129%
viability, T/C (second compound 1 µM, first compound 10 µM): 132%
viability, T/C (second compound 3.16 µM, first compound 0.0316 µM): 117%
viability, T/C (second compound 3.16 µM, first compound 0.1 µM): 138%
viability, T/C (second compound 3.16 µM, first compound 0.316 µM): 124%
viability, T/C (second compound 3.16 µM, first compound 1 µM): 121%
viability, T/C (second compound 3.16 µM, first compound 3.16 µM): 136%
viability, T/C (second compound 3.16 µM, first compound 10 µM): 108%
viability, T/C (second compound 10 µM, first compound 0.0316 µM): 132%
viability, T/C (second compound 10 µM, first compound 0.1 µM): 128%
viability, T/C (second compound 10 µM, first compound 0.316 µM): 125%
viability, T/C (second compound 10 µM, first compound 1 µM): 136%
viability, T/C (second compound 10 µM, first compound 3.16 µM): 128%
viability, T/C (second compound 10 µM, first compound 10 µM): 127%
viability, T/C (second compound 31.6 µM, first compound 0.0316 µM): 124%
viability, T/C (second compound 31.6 µM, first compound 0.1 µM): 144%
viability, T/C (second compound 31.6 µM, first compound 0.316 µM): 132%
viability, T/C (second compound 31.6 µM, first compound 1 µM): 125%
viability, T/C (second compound 31.6 µM, first compound 3.16 µM): 135%
viability, T/C (second compound 31.6 µM, first compound 10 µM): 145%
viability, T/C (second compound 100 µM, first compound 0.0316 µM): 118%
viability, T/C (second compound 100 µM, first compound 0.1 µM): 132%
viability, T/C (second compound 100 µM, first compound 0.316 µM): 136%
viability, T/C (second compound 100 µM, first compound 1 µM): 146%
viability, T/C (second compound 100 µM, first compound 3.16 µM): 137%
viability, T/C (second compound 100 µM, first compound 10 µM): 150%

SMILES: CC1COCCN1c1cc(-c2ccnn2C)c2ccnc(-c3ccn[nH]3)c2n1 (stereo unspecified) + CC[C@@]1(O)C(=O)OCc2c1cc1n(c2=O)Cc2cc3c(CN(C)C)c(O)ccc3nc2-1
IC50 (curve of first compound, second compound 0.003 µM): 1.04 µM
IC50 (curve of first compound, second compound 0.00949 µM): 1.09 µM
IC50 (curve of first compound, second compound 0.03 µM): 0.823 µM
IC50 (curve of first compound, second compound 0.0949 µM): 0.814 µM
IC50 (curve of first compound, second compound 0.3 µM): 0.518 µM
viability, T/C (second compound 0.003 µM, first compound 0.0316 µM): 97.2%
viability, T/C (second compound 0.003 µM, first compound 0.1 µM): 81.5%
viability, T/C (second compound 0.003 µM, first compound 0.316 µM): 74%
viability, T/C (second compound 0.003 µM, first compound 1 µM): 47.6%
viability, T/C (second compound 0.003 µM, first compound 3.16 µM): 39.2%
viability, T/C (second compound 0.003 µM, first compound 10 µM): 36.1%
viability, T/C (second compound 0.00949 µM, first compound 0.0316 µM): 93.8%
viability, T/C (second compound 0.00949 µM, first compound 0.1 µM): 85.1%
viability, T/C (second compound 0.00949 µM, first compound 0.316 µM): 69.3%
viability, T/C (second compound 0.00949 µM, first compound 1 µM): 52.5%
viability, T/C (second compound 0.00949 µM, first compound 3.16 µM): 36.1%
viability, T/C (second compound 0.00949 µM, first compound 10 µM): 33.4%
viability, T/C (second compound 0.03 µM, first compound 0.0316 µM): 83.1%
viability, T/C (second compound 0.03 µM, first compound 0.1 µM): 76.3%
viability, T/C (second compound 0.03 µM, first compound 0.316 µM): 63.6%
viability, T/C (second compound 0.03 µM, first compound 1 µM): 48.1%
viability, T/C (second compound 0.03 µM, first compound 3.16 µM): 36.8%
viability, T/C (second compound 0.03 µM, first compound 10 µM): 37.9%
viability, T/C (second compound 0.0949 µM, first compound 0.0316 µM): 82.2%
viability, T/C (second compound 0.0949 µM, first compound 0.1 µM): 71.3%
viability, T/C (second compound 0.0949 µM, first compound 0.316 µM): 65.1%
viability, T/C (second compound 0.0949 µM, first compound 1 µM): 46.1%
viability, T/C (second compound 0.0949 µM, first compound 3.16 µM): 37.4%
viability, T/C (second compound 0.0949 µM, first compound 10 µM): 34.9%
viability, T/C (second compound 0.3 µM, first compound 0.0316 µM): 71.2%
viability, T/C (second compound 0.3 µM, first compound 0.1 µM): 66.9%
viability, T/C (second compound 0.3 µM, first compound 0.316 µM): 56.8%
viability, T/C (second compound 0.3 µM, first compound 1 µM): 41.4%
viability, T/C (second compound 0.3 µM, first compound 3.16 µM): 36.3%
viability, T/C (second compound 0.3 µM, first compound 10 µM): 38.1%

IC50 (compound alone, run of 12/02/2019): > 100 µM
SMILES: Cn1nnc2c(C(N)=O)ncn2c1=O
viability, T/C (compound 3.16 µM): 112% [middle of 10 runs]
viability, T/C (compound 10 µM): 108% [middle of 10 runs]
viability, T/C (compound 31.6 µM): 110% [middle of 10 runs]
viability, T/C (compound 100 µM): 109% [middle of 10 runs]
